Assay results reported in PubChem BioAssay (NCI).
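In this assay, cells in 96-well plates receive the compound at five concentrations for 48 hours. Endpoints are linearly interpolated between the surrounding concentrations. TGI: concentration producing complete growth inhibition.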

What was measured:
Experiment in all cases: inhibition of tumour cell growth, NCI panel, 48 h
ACHN renal = test system: ACHN renal
COLO 205 colon = test system: COLO 205 colon
HCC-2998 colon = test system: HCC-2998 colon
HCT-116 colon = test system: HCT-116 colon
HCT-15 colon = test system: HCT-15 colon
HOP-62 NSCLC = test system: HOP-62 NSCLC
K-562 leukemia = test system: K-562 leukemia
KM12 colon = test system: KM12 colon
MALME-3M melanoma = test system: MALME-3M melanoma
MCF7 breast = test system: MCF7 breast
MDA-N = test system: MDA-N
NCI-H460 lung = test system: NCI-H460 lung
OVCAR-5 ovarian = test system: OVCAR-5 ovarian
OVCAR-8 ovarian = test system: OVCAR-8 ovarian
SF-268 CNS = test system: SF-268 CNS
SR leukemia = test system: SR leukemia
SW-620 colon = test system: SW-620 colon
UACC-257 melanoma = test system: UACC-257 melanoma
PC-3 prostate = test system: PC-3 prostate
SK-MEL-2 melanoma = test system: SK-MEL-2 melanoma

NCC(=O)NC1(c2cc3ccccc3s2)CCCCC1
TGI (ACHN renal): 56.9 µM
TGI (COLO 205 colon): 32.5 µM
TGI (HCC-2998 colon): 29 µM
TGI (HCT-116 colon): > 100 µM
TGI (HCT-15 colon): > 100 µM
TGI (HOP-62 NSCLC): > 100 µM
TGI (K-562 leukemia): 24.6 µM
TGI (KM12 colon): > 100 µM
TGI (MALME-3M melanoma): 36.3 µM
TGI (MCF7 breast): > 100 µM
TGI (MDA-N): > 100 µM
TGI (NCI-H460 lung): > 100 µM
TGI (OVCAR-5 ovarian): > 100 µM
TGI (OVCAR-8 ovarian): > 100 µM
TGI (SF-268 CNS): > 100 µM
TGI (SR leukemia): 19.2 µM
TGI (SW-620 colon): > 100 µM
TGI (UACC-257 melanoma): 32.1 µM

COc1cc(C=O)ccc1Oc1nnnn1-c1ccccc1
TGI (COLO 205 colon): > 100 µM
TGI (HCT-116 colon): > 100 µM
TGI (HCT-15 colon): > 100 µM
TGI (HOP-62 NSCLC): > 100 µM
TGI (K-562 leukemia): > 100 µM
TGI (KM12 colon): > 100 µM
TGI (MALME-3M melanoma): > 100 µM
TGI (MDA-N): > 100 µM
TGI (NCI-H460 lung): > 100 µM
TGI (OVCAR-5 ovarian): > 100 µM
TGI (OVCAR-8 ovarian): > 100 µM
TGI (PC-3 prostate): > 100 µM
TGI (SF-268 CNS): > 100 µM
TGI (SK-MEL-2 melanoma): > 100 µM
TGI (SR leukemia): 51.1 µM
TGI (SW-620 colon): > 100 µM
TGI (UACC-257 melanoma): > 100 µM

NC(Cc1ccc(S(=O)(=O)O)cc1)C(=O)NC(CCCCNC(=O)NCCCCC(NC(=O)C(N)Cc1ccc(S(=O)(=O)O)cc1)C(=O)NC(Cc1ccc(S(=O)(=O)O)cc1)C(=O)O)C(=O)NC(Cc1ccc(S(=O)(=O)O)cc1)C(=O)O (centres undefined)
TGI (ACHN renal): > 100 µM
TGI (COLO 205 colon): > 100 µM
TGI (HCC-2998 colon): > 100 µM
TGI (HCT-116 colon): > 100 µM
TGI (HCT-15 colon): > 100 µM
TGI (HOP-62 NSCLC): > 100 µM
TGI (K-562 leukemia): > 100 µM
TGI (KM12 colon): > 100 µM
TGI (MALME-3M melanoma): > 100 µM
TGI (MCF7 breast): > 100 µM
TGI (MDA-N): > 100 µM
TGI (NCI-H460 lung): > 100 µM
TGI (OVCAR-5 ovarian): > 100 µM
TGI (OVCAR-8 ovarian): > 100 µM
TGI (PC-3 prostate): > 100 µM
TGI (SF-268 CNS): > 100 µM
TGI (SK-MEL-2 melanoma): > 100 µM
TGI (SW-620 colon): > 100 µM
TGI (UACC-257 melanoma): > 100 µM

COc1cc2c(/C=C3/C(=O)N(C)c4ccccc43)c(Cl)[nH]c2cc1C
TGI (ACHN renal): > 55.9 µM
TGI (COLO 205 colon): 0.579 µM
TGI (HCC-2998 colon): 0.317 µM
TGI (HCT-116 colon): 7.02 µM
TGI (HCT-15 colon): 6.34 µM
TGI (HOP-62 NSCLC): 3.56 µM
TGI (MCF7 breast): > 23.5 µM
TGI (MDA-N): 0.153 µM
TGI (NCI-H460 lung): 1.36 µM
TGI (OVCAR-5 ovarian): > 57.2 µM
TGI (OVCAR-8 ovarian): 3.77 µM
TGI (PC-3 prostate): 13 µM
TGI (SF-268 CNS): 3.09 µM
TGI (SK-MEL-2 melanoma): 5.31 µM
TGI (SR leukemia): 10.2 µM
TGI (SW-620 colon): > 100 µM
TGI (UACC-257 melanoma): 97.6 µM

CCOC(=O)c1ccc(Nc2cnc3cc(C(F)(F)F)ccc3n2)cc1
TGI (ACHN renal): > 100 µM
TGI (COLO 205 colon): > 100 µM
TGI (HCC-2998 colon): > 100 µM
TGI (HCT-116 colon): > 100 µM
TGI (HCT-15 colon): > 100 µM
TGI (HOP-62 NSCLC): > 100 µM
TGI (K-562 leukemia): > 100 µM
TGI (KM12 colon): > 100 µM
TGI (MALME-3M melanoma): > 100 µM
TGI (MDA-N): > 100 µM
TGI (NCI-H460 lung): > 100 µM
TGI (OVCAR-5 ovarian): > 100 µM
TGI (OVCAR-8 ovarian): > 100 µM
TGI (PC-3 prostate): > 100 µM
TGI (SF-268 CNS): > 100 µM
TGI (SR leukemia): > 100 µM
TGI (SW-620 colon): > 100 µM
TGI (UACC-257 melanoma): > 100 µM

Cc1ccc(-c2nc(C)c(C(=O)Nc3ccc(Cl)cc3)s2)cc1
TGI (ACHN renal): 42 µM
TGI (COLO 205 colon): > 100 µM
TGI (HCT-116 colon): 41.2 µM
TGI (HCT-15 colon): > 100 µM
TGI (HOP-62 NSCLC): 26.2 µM
TGI (K-562 leukemia): > 100 µM
TGI (KM12 colon): > 100 µM
TGI (MALME-3M melanoma): > 100 µM
TGI (MCF7 breast): > 100 µM
TGI (MDA-N): > 100 µM
TGI (NCI-H460 lung): > 100 µM
TGI (OVCAR-5 ovarian): > 100 µM
TGI (OVCAR-8 ovarian): 36.9 µM
TGI (PC-3 prostate): > 100 µM
TGI (SF-268 CNS): 91.8 µM
TGI (SK-MEL-2 melanoma): > 100 µM
TGI (SR leukemia): > 100 µM
TGI (SW-620 colon): > 100 µM
TGI (UACC-257 melanoma): > 100 µM

COc1cc2c[n+](C)c3c4cc(OC)c(OC)cc4c(OC)cc3c2cc1OC
TGI (ACHN renal): > 100 µM
TGI (COLO 205 colon): 4.41 µM
TGI (HCC-2998 colon): > 52.1 µM
TGI (HCT-116 colon): > 43.6 µM
TGI (HCT-15 colon): > 100 µM
TGI (HOP-62 NSCLC): > 100 µM
TGI (K-562 leukemia): > 41.5 µM
TGI (KM12 colon): > 67.1 µM
TGI (MALME-3M melanoma): 9.44 µM
TGI (MCF7 breast): > 100 µM
TGI (MDA-N): > 45.9 µM
TGI (NCI-H460 lung): > 100 µM
TGI (OVCAR-5 ovarian): > 100 µM
TGI (OVCAR-8 ovarian): 23 µM
TGI (PC-3 prostate): 98.9 µM
TGI (SF-268 CNS): 18.7 µM
TGI (SK-MEL-2 melanoma): > 86 µM
TGI (SW-620 colon): > 100 µM
TGI (UACC-257 melanoma): 18.3 µM

Cc1c(NC(=S)NN)c(=O)n(-c2ccccc2)n1C
TGI (COLO 205 colon): > 100 µM
TGI (HCT-116 colon): > 100 µM
TGI (HCT-15 colon): > 100 µM
TGI (HOP-62 NSCLC): > 100 µM
TGI (K-562 leukemia): > 100 µM
TGI (KM12 colon): > 100 µM
TGI (MALME-3M melanoma): > 100 µM
TGI (MCF7 breast): > 100 µM
TGI (MDA-N): > 100 µM
TGI (NCI-H460 lung): > 100 µM
TGI (OVCAR-5 ovarian): > 100 µM
TGI (OVCAR-8 ovarian): > 100 µM
TGI (PC-3 prostate): > 100 µM
TGI (SF-268 CNS): > 100 µM
TGI (SK-MEL-2 melanoma): > 100 µM
TGI (SR leukemia): > 100 µM
TGI (SW-620 colon): > 100 µM
TGI (UACC-257 melanoma): > 100 µM

COc1cc(C2SC(N)=Nc3c2c(C)nn3C(=O)c2ccccc2O)cc(OC)c1OC (centres undefined)
TGI (ACHN renal): > 10 µM
TGI (COLO 205 colon): > 10 µM
TGI (HCT-116 colon): > 10 µM
TGI (HCT-15 colon): > 10 µM
TGI (HOP-62 NSCLC): > 10 µM
TGI (K-562 leukemia): > 10 µM
TGI (KM12 colon): > 10 µM
TGI (MALME-3M melanoma): > 10 µM
TGI (MCF7 breast): > 10 µM
TGI (MDA-N): > 10 µM
TGI (NCI-H460 lung): > 10 µM
TGI (OVCAR-5 ovarian): > 10 µM
TGI (OVCAR-8 ovarian): > 10 µM
TGI (PC-3 prostate): > 10 µM
TGI (SF-268 CNS): > 10 µM
TGI (SK-MEL-2 melanoma): > 10 µM
TGI (SR leukemia): > 10 µM
TGI (SW-620 colon): > 10 µM
TGI (UACC-257 melanoma): > 10 µM

Cc1ccc(C2=Nc3cc(C)c(Cl)cc3S(=O)(=O)NN2)cc1
TGI (ACHN renal): > 100 µM
TGI (COLO 205 colon): > 100 µM
TGI (HCC-2998 colon): > 100 µM
TGI (HCT-116 colon): > 100 µM
TGI (HCT-15 colon): > 100 µM
TGI (HOP-62 NSCLC): > 100 µM
TGI (K-562 leukemia): > 100 µM
TGI (KM12 colon): > 100 µM
TGI (MALME-3M melanoma): > 100 µM
TGI (MCF7 breast): > 100 µM
TGI (MDA-N): > 100 µM
TGI (NCI-H460 lung): > 100 µM
TGI (OVCAR-8 ovarian): > 100 µM
TGI (PC-3 prostate): > 100 µM
TGI (SF-268 CNS): > 100 µM
TGI (SR leukemia): 53 µM
TGI (SW-620 colon): > 100 µM
TGI (UACC-257 melanoma): > 100 µM

CC1(C)CC(=O)C(CCC(=O)/C=C/c2ccccc2)C(=O)C1
TGI (ACHN renal): > 100 µM
TGI (COLO 205 colon): > 100 µM
TGI (HCC-2998 colon): > 100 µM
TGI (HCT-116 colon): > 100 µM
TGI (HCT-15 colon): > 100 µM
TGI (HOP-62 NSCLC): > 100 µM
TGI (K-562 leukemia): > 100 µM
TGI (KM12 colon): > 100 µM
TGI (MALME-3M melanoma): > 100 µM
TGI (MCF7 breast): > 100 µM
TGI (MDA-N): > 100 µM
TGI (NCI-H460 lung): > 100 µM
TGI (OVCAR-5 ovarian): > 100 µM
TGI (OVCAR-8 ovarian): > 100 µM
TGI (PC-3 prostate): > 100 µM
TGI (SF-268 CNS): > 100 µM
TGI (SK-MEL-2 melanoma): > 100 µM
TGI (SW-620 colon): > 100 µM
TGI (UACC-257 melanoma): > 100 µM

COc1cc(C2SCC(=O)N2c2cc(Cl)c(Cl)cc2Cl)cc(OC)c1OC (centres undefined)
TGI (ACHN renal): > 100 µM
TGI (COLO 205 colon): > 100 µM
TGI (HCC-2998 colon): > 100 µM
TGI (HCT-116 colon): > 100 µM
TGI (HCT-15 colon): > 100 µM
TGI (K-562 leukemia): > 100 µM
TGI (KM12 colon): > 100 µM
TGI (MCF7 breast): > 100 µM
TGI (MDA-N): 95.4 µM
TGI (NCI-H460 lung): > 100 µM
TGI (OVCAR-5 ovarian): > 100 µM
TGI (OVCAR-8 ovarian): > 100 µM
TGI (PC-3 prostate): > 100 µM
TGI (SF-268 CNS): > 100 µM
TGI (SK-MEL-2 melanoma): > 100 µM
TGI (SR leukemia): 84.3 µM
TGI (SW-620 colon): > 100 µM
TGI (UACC-257 melanoma): > 100 µM
